These results are taken from US10103402B2, “Liquid phenothiazine catholytes for non-aqueous redox flow batteries” (University of Kentucky Research Foundation, priority 2015, dated 2018).

For data set [1] the following is noted: cited from earlier work.
Data set [2] in a line: Cyclic voltammetry, half-wave oxidation potentials. Format: physicochemical. As to conditions: for E1/2^+/0 vs. Li^+/0, LiBF4 in PC: 10 mM analyte in 0.5M LiBF4/PC, 100 mV/s; for Oxidation potential higher than EPT, LiPF6/EC/EMC: difference of E1/2^+/0 to EPT in LiPF6/EC/EMC; for Oxidation potential higher than EPT, TBA-PF6/DCM: difference of E1/2^+/0 to EPT in TBA-PF6/DCM. The procedure: The compounds of the present invention provide for components of a redox flow battery system, particularly as part of a catholyte composition. The studies described herein detail their effectiveness for such. The position and reversibility of redox events was determined by cyclic voltammetry (CV), performed in dichloromethane (DCM) containing 0.1 M tetra(n-butyl)ammonium hexafluorophosphate (TBA-PF6) (FIG. 7), in EC/EMC (3:7) containing 1.2 M LiPF6 (FIG. 2), or in propylene carbonate (PC) containing 0.5 M LiBF4 (FIG. 2). Both compounds show reversible first oxidations in all electrolytes. In TBA-PF6/DCM, MEPT (E1/2^+/0=0.30 V vs. Cp2Fe^+/0) and MEEPT (E1/2^+/0=0.29 V vs. Cp2Fe^+/0) oxidize at 0.03 and 0.02 V higher, respectively, than EPT (Table 1). In contrast, though the oxidation potentials of the new compounds were still higher than that of EPT in LiPF6/EC/EMC, a larger difference was observed: MEPT (E1/2^+/0=3.56 V vs. Li^+/0) and MEEPT (E1/2^+/0=3.60 V vs. Li^+/0) oxidized at […] higher, respectively, than EPT (Table 1). The increase in oxidation potential in the lithium-based electrolytes can be attributed to the coordination, through the oligoether side chain, of MEPT to Li^+, a characteristic that is even more pronounced in the case of MEEPT.
(§1) Cyclic voltammetry (CV) experiments were performed using a CH Instruments 600D potentiostat using a three-electrode system in either 100 mM TBAPF6 in anhydrous DCM or in 1.2 M LiPF6 in ethylene carbonate (EC)/ethyl methyl carbonate (EMC) (3:7 wt. ratio) containing […] redox shuttle. Cyclic voltammograms were also recorded in 0.5 M LiBF4 in propylene carbonate (PC) containing 10 mM analyte. Glassy carbon was used as the working electrode, platinum wire as the counter electrode and either freshly anodized Ag/AgCl (in DCM) or lithium metal (in battery electrolyte) as reference electrodes. Oxidation potentials are reported relative to ferrocenium/ferrocene) (Cp2Fe^+/0) in DCM or to Li^+/0 in battery electrolyte. Voltammograms were recorded at a scan rate of 100 mV/s. To determine diffusion coefficients, voltammograms were recorded at variable rates between 5 and 500 mV/s at analyte concentration of 80 mM in 1.2 M LiPF6 in EC/EMC and 10 mM in 0.5 M LiBF4 in PC.

Data set [3] in a line: Cyclic voltammetry at variable scan rates, diffusion coefficients. It is filed as physicochemical. As to conditions: for Diffusion Coefficient, neutral, TBA-PF6 in DCM / Diffusion Coefficient, oxidized, TBA-PF6 in DCM: 10 mM analyte in 100 mM TBA-PF6/DCM, 10 to 200 mV/s; for Diffusion Coefficient, neutral, LiBF4 in PC / Diffusion Coefficient, oxidized, LiBF4 in PC: 10 mM analyte in 0.5M LiBF4/PC; for Diffusion Coefficient, neutral, LiBF4 in PC / Diffusion Coefficient, neutral, LiPF6 in EC/EMC / Diffusion Coefficient, oxidized, LiBF4 in PC / Diffusion Coefficient, oxidized, LiPF6 in EC/EMC: 5 to 500 mV/s; for Diffusion Coefficient, neutral, LiPF6 in EC/EMC / Diffusion Coefficient, oxidized, LiPF6 in EC/EMC: 80 mM analyte in 1.2M LiPF6 in EC/EMC (3:7). How it is done:
MEPT and MEEPT were subjected to CV experiments at variable scan rates in the carbonate-based electrolytes and DCM to determine their diffusion coefficients (FIG. 2, 8). At 80 mM, MEPT and MEEPT diffuse more slowly than EPT. This observation can be explained by the interaction of MEPT and MEEPT with a lithium ion from the electrolyte, which increases the size/molecular weight of the shuttle. Because the additional oxygen in MEEPT enhances the ability for Li^+ chelation, this effect is posited to be responsible for the further reduction in its diffusion rate.
as §1

A short description of data set [4]: Solubility / miscibility in battery electrolyte and organic solvents. It is filed as physicochemical. To be noted: for Concentration corresponding to 50 wt. % miscibility: 1.2 M LiPF6 in EC/EMC (3:7 wt. ratio). The text has this:
The compounds of the present invention can be prepared by deprotonation of phenothiazine and a subsequent SN2 reaction with a corresponding alkyl halide. This process has produced MEPT and MEEPT in good yields. The compounds were isolated as colorless oils that were miscible with a variety of organic solvents. Both derivatives were miscible up to 50 wt. % in the common battery electrolyte, 1.2 M LiPF6 in ethylene carbonate/ethyl methyl carbonate (EC/EMC, 3:7 wt. ratio) (Table 1), which corresponds to a concentration of ca. 2 M. In contrast, the solubility of EPT is limited to 0.1 M in the same electrolyte.
Next, to evaluate MEPT and MEEPT as cathode candidates for RFBs, the performance of the redox-active species over multiple charge and discharge cycles was analyzed, albeit in a static environment, using galvanostatic cycling in MEPT/Li and MEEPT/Li coin cells. Here we employed the electrolyte 0.5 M LiBF4 in PC in which both MEPT and MEEPT are miscible at as high as 50 wt. % (Table 1). The positive electrode was composed of graphite felt soaked in catholyte consisting of 10 mM active species in 0.5 M LiBF4 in PC, and Li metal was employed as the negative electrode. The electrodes were separated by a lithiated Nafion membrane. The coin cells were cycled between 3.2 and 3.8 V at a rate of C/5 up to 100% SOC so that the first oxidation would be accessed. The theoretical capacities of EPT, MEPT, and MEEPT are 118 mAh/g, 104 mAh/g, and 89 mAh/g, respectively. The charge and discharge plateaus occur in accordance with the potentials determined by CV; they represent the formation and reversible reduction of the respective radical cations. […] The gap between the charge and discharge capacities may result from crossover of the charged species. […] EPT, MEPT, and MEEPT retained ca. 76%, 68% and 67%, respectively, of the original charge capacity after 30 cycles, over which time the coulombic efficiencies for all three catholytes stabilized at ca. 90%.

The nature of data set [5]: Radical cation stability by UV-vis absorption spectroscopy. Format: physicochemical. As to conditions: 0.167 mM radical cation in DCM, oxidation with TBPA-SbCl6, monitored 5 h. From the text:
The stability of the radical cation—typically the more reactive form of the electro-active material—can be monitored using UV-vis absorption spectroscopy as these species absorb light in the visible region. This method has proven to be useful for the evaluation of redox shuttle candidates for overcharge protection in LIBs, another application in which the radical cation is involved in electron transfer. The stability of the EPT, MEPT, and MEEPT radical cations were compared in dilute dichloromethane solutions after generation through chemical oxidation with tris(4-bromophenyl)aminium hexachloroantimonate (TBPA-SbCl6).
UV-vis spectra were collected using optical glass cuvettes (Starna) with 1 cm path length with an Agilent 8453 diode array spectrometer. Radical cations were generated in anhydrous DCM by the addition of a 1 mL DCM solution of 0.50 mM TBPA-SbCl6 to a 2 mL DCM solution containing 2.5 mM analyte to produce a final solution containing 0.17 mM radical cation with 1.7 mM analyte, which generates 0.17 mM analyte radical cation with a 9-fold excess of neutral analyte. The cuvettes were capped, and spectra were collected for 5 h.

For data set [6] the following is noted: carbonate-based electrolytes; cited from earlier work.
Data set [7] in a line: Cyclic voltammetry, half-wave oxidation potentials. To be noted: for E1/2^+/0 vs. Cp2Fe^+/0 in TBA-PF6 in DCM: 80 mM analyte in 100 mM TBA-PF6/DCM, 100 mV/s scan rate; for E1/2^+/0 vs. Li^+/0, LiPF6 in EC/EMC: 80 mM analyte in 1.2M LiPF6 in EC/EMC (3:7 wt. ratio), 100 mV/s. Format: physicochemical.

For the compound `CCN1c2ccc(C(F)(F)F)cc2Sc2cc(C(F)(F)F)ccc21` [BCF3EPT, 3,7-bis(trifluoromethyl)-N-ethylphenothiazine], the “Solubility in organic solvents and electrolytes” value in data set [1] (organic solvents and electrolytes) was 1500 to 2000 mM.
As for `CCN1c2ccccc2Sc2ccccc21` [EPT, N-ethylphenothiazine, reference compound], in data set [2], the “E1/2^+/0 vs. Li^+/0, LiBF4 in PC” value was 3.60 V. Further, in data set [3], the “Diffusion Coefficient, neutral, TBA-PF6 in DCM” value is listed as 3.9 ×10^−6 cm^2s^−1; the “Diffusion Coefficient, neutral, LiBF4 in PC” value was 1.5 ×10^−6 cm^2s^−1; the “Diffusion Coefficient, neutral, LiPF6 in EC/EMC” value is 1.0 ×10^−6 cm^2s^−1; the “Diffusion Coefficient, oxidized, TBA-PF6 in DCM” value is given as 2.4 ×10^−6 cm^2s^−1. Moreover, in data set [3], the “Diffusion Coefficient, oxidized, LiBF4 in PC” value is 1.4 ×10^−6 cm^2s^−1 and the “Diffusion Coefficient, oxidized, LiPF6 in EC/EMC” value was 0.7 ×10^−6 cm^2s^−1. Moreover, the “Solubility 0.5M LiBF4 in PC” value in data set [4] (0.5 M LiBF4 in PC) is on record as at most 0.1M. For the same compound, in data set [5], the “Radical cation stability, change of absorption spectra” value (shortened to “Radical cation stability, change”) was “remain almost unchanged”. Further, the “Oxidation potential vs. Li^+/0” value in data set [6] is given as “ca. 3.5 V”. For the same compound, in data set [7], the “E1/2^+/0 vs. Cp2Fe^+/0 in TBA-PF6 in DCM” value is given as 0.27 V and the “E1/2^+/0 vs. Li^+/0, LiPF6 in EC/EMC” value is on record as 3.51 V. Also, in data set [1] (organic solvents), the “Solubility in organic solvents” value is listed as “ca. 0.1 M”.
`COCCOCCN1c2ccccc2Sc2ccccc21` [MEEPT, N-[2-(2-methoxyethoxy)ethyl]phenothiazine]: in data set [2], the “E1/2^+/0 vs. Li^+/0, LiBF4 in PC” value came to 3.64 V; the “Oxidation potential higher than EPT, LiPF6/EC/EMC” value stood at 0.09 V; the “Oxidation potential higher than EPT, TBA-PF6/DCM” value worked out at 0.02 V. Further, in data set [3], the “Diffusion Coefficient, neutral, TBA-PF6 in DCM” value is recorded as 2.5 ×10^−6 cm^2s^−1; the “Diffusion Coefficient, neutral, LiBF4 in PC” value is 0.7, 0.7 ×10^−6 cm^2s^−1; the “Diffusion Coefficient, neutral, LiPF6 in EC/EMC” value was 0.2 ×10^−6 cm^2s^−1; the “Diffusion Coefficient, oxidized, TBA-PF6 in DCM” value is reported as 1.6 ×10^−6 cm^2s^−1. Further, in data set [3], the “Diffusion Coefficient, oxidized, LiBF4 in PC” value is 0.7, 0.7 ×10^−6 cm^2s^−1 and the “Diffusion Coefficient, oxidized, LiPF6 in EC/EMC” value is listed as 0.1 ×10^−6 cm^2s^−1. In data set [4], the “Concentration corresponding to 50 wt. % miscibility” value was “ca. 2 M”. Further, the “Radical cation stability, change” value in data set [5] is “remain almost unchanged”. Moreover, in data set [7], the “E1/2^+/0 vs. Cp2Fe^+/0 in TBA-PF6 in DCM” value is 0.29 V and the “E1/2^+/0 vs. Li^+/0, LiPF6 in EC/EMC” value is reported as 3.60 V.
On to `COCCN1c2ccccc2Sc2ccccc21` [MEPT, N-(2-methoxyethyl)phenothiazine], for which, in data set [2], the “E1/2^+/0 vs. Li^+/0, LiBF4 in PC” value worked out at 3.64 V; the “Oxidation potential higher than EPT, LiPF6/EC/EMC” value is listed as 0.06 V; the “Oxidation potential higher than EPT, TBA-PF6/DCM” value was 0.03 V. Besides, in data set [3], the “Diffusion Coefficient, neutral, TBA-PF6 in DCM” value is 3.7 ×10^−6 cm^2s^−1; the “Diffusion Coefficient, neutral, LiBF4 in PC” value is 1.1 ×10^−6 cm^2s^−1; the “Diffusion Coefficient, neutral, LiPF6 in EC/EMC” value is 0.4 ×10^−6 cm^2s^−1; the “Diffusion Coefficient, oxidized, TBA-PF6 in DCM” value is recorded as 2.6 ×10^−6 cm^2s^−1. In addition, in data set [3], the “Diffusion Coefficient, oxidized, LiBF4 in PC” value is 1.0 ×10^−6 cm^2s^−1 and the “Diffusion Coefficient, oxidized, LiPF6 in EC/EMC” value is reported as 0.2 ×10^−6 cm^2s^−1. In addition, the “Concentration corresponding to 50 wt. % miscibility” value in data set [4] was “ca. 2 M”. In addition, the “Radical cation stability, change” value in data set [5] is listed as “remain almost unchanged”. Further, in data set [7], the “E1/2^+/0 vs. Cp2Fe^+/0 in TBA-PF6 in DCM” value was 0.30 V and the “E1/2^+/0 vs. Li^+/0, LiPF6 in EC/EMC” value came to 3.56 V.
